According to US20260325542A1, “CANCER TARGETING COMPLEX, AND COMPOSITION COMPRISING SAME FOR PREVENTING OR TREATING CANCER” (EWHA UNIVERSITY - INDUSTRY COLLABORATION FOUNDATION, priority 2023, published 2026):
Entries after “also recorded” stand apart in the source; their conditions may differ.

Tests used:
[1] = biological target: T1, BSA (bovine serum albumin) (Bos taurus, UniProt P02769); test: In vitro binding of ECMal-PROTAC to albumin (thiol-maleimide reaction), RP-HPLC; conditions: BSA 200 μM, ECMal-PROTAC 140 μM, 1:1 volume ratio
T1 construct: free Cys34 thiol reacts with maleimide
T1 sequence (P02769 25-607): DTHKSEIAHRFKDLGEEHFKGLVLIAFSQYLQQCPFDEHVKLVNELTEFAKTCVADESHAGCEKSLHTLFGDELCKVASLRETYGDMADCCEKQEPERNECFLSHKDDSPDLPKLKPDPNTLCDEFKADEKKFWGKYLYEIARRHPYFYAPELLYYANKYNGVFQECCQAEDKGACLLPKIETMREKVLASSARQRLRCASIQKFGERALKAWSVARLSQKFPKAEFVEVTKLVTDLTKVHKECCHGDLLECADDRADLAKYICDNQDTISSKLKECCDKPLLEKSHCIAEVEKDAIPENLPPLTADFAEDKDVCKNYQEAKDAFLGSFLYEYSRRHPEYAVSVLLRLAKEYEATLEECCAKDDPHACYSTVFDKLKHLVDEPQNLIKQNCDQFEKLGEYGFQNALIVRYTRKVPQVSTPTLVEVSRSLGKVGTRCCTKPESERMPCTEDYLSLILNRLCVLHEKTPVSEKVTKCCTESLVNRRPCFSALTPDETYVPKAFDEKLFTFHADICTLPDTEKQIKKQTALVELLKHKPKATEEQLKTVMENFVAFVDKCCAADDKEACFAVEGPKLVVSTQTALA
Description: The binding rate of ECMal-PROTAC from example 1 and albumin was confirmed through RP-HPLC. Specifically, a BSA solution (200 μM) diluted with PBS was co-incubated by mixing it with an ECMal-PROTAC aqueous solution (140 μM) of example 1 at a 1:1 volume ratio. The culture was collected at incubation times of 0 minutes, 5 minutes, 30 minutes, and 60 minutes. It was quenched with mercaptoethanol, and HPLC spectra for each sample were acquired through concentration gradient of the eluent (ACN/H2O, 20/80 to 80/20 (v/v), 30 minutes).
To verify the albumin binding ability of the complex for cancer targeting (ECMal-PROTAC) of example 1, the mixture of BSA and the complex for cancer targeting (ECMal-PROTAC) was analyzed by LC-MS spectrum, and compared with the LC-MS spectrum of free BSA.
FIG. 4 is the HPLC spectrum of a mixture of BSA and the complex for cancer targeting (ECMal-PROTAC). According to this, it can be seen that BSA and the complex for cancer targeting (ECMal-PROTAC) rapidly bind through a thiol-maleimide click chemical reaction. To confirm the albumin binding ability of the complex for cancer targeting (ECMal-PROTAC) of example 1, bovine serum albumin (BSA), which has a structure similar to human serum albumin (HSA), was used for analysis.
At this time, the HPLC spectra were also analyzed for a co-incubation of ARV-771 (140 μM) and BSA solution (200 μM) mixed at a 1:1 volume ratio as a comparative example, and for the ECMal-PROTAC solution and BSA solution alone without any treatment of example 1.
From the HPLC results for the BSA and complex for cancer targeting (ECMal-PROTAC) mixture in Experimental Example 1 and the thiol-blocked BSA and complex for cancer targeting (ECMal-PROTAC) mixture in Experimental Example 2, the reduction in the HPLC peak area associated with the complex for cancer targeting (ECMal-PROTAC) was quantified.

4T1 tumor = test: In vivo anticancer efficacy, tumor size in 4T1 cancer animal model; set-up: species or system mouse
Description: 5-week-old female Balb/c and Balb/c nu/nu mice were purchased from NaraBio, Inc (Seoul, Republic of Korea). The mice underwent a 2-week acclimatization period before the example. The mice were raised under free-feeding conditions in a breeding room maintained at a temperature of 22±2° C. and humidity of 40-60% during the example. The light and dark cycle was regulated at 12-hour intervals. All examples were conducted in compliance with the relevant laws and institutional guidelines of the KIST Institutional Animal Care and Use Committee (IACUC; Approval No.: 2021-143).
Cancer animal models were prepared by inoculating 1×10^6 4T1 cells into the left thigh of the mice, and raising them until the tumor volume reached 50-80 mm^3.
For the preparation of the control group, the comparison group, and the example group, mice were randomly divided into groups of 5.
(§1) The control group was administered saline (10 mg/kg) once every 3 days for 15 days through the tail vein (total 4 administrations). The comparison group was administered ARV-771 (10 mg/kg) once every 3 days for 15 days through the tail vein (total 4 administrations). The example group was administered ECMal-PROTAC 10 mg/kg (wquiv. to ARV-771) of example 1 once every 3 days for 15 days through the tail vein (total 4 administrations).
Tumor size and body weight were measured every two days for the control group, the comparison group, and the example group.

BRD4 = biological target: T2, BRD4 (Mus musculus, UniProt Q9ESU6); test: Western blot, BRD4 degradation in 4T1 cells; type: cell-based; conditions: 24 hours
T2 construct: Western blot after PROTAC (ARV-771 release, VHL recruiting)
Description: Accordingly, Western blot analysis was performed to confirm the anticancer ability by evaluating the presence or absence of degradation of BRD4 and other related proteins (e.g., c-Myc and Bcl-2) when cancer cells were treated with the complex for cancer targeting (ECMal-PROTAC) of example 1. The complex for cancer targeting (ECMal-PROTAC) of example 1 and ARV-771 were prepared as samples.
First, 1×10^5 4T1 cells were dispensed into each well of a 6-well culture plate and cultured for 24 hours at 37° C. and 5% carbon dioxide atmosphere. The cell culture medium was supplemented with various concentrations of ARV-771 (0 to 10 μM) or the complex for cancer targeting (ECMal-PROTAC) of example 1 (0 to 10 μM), and cultured at 37° C. for 24 hours. After the culture was completed, the cells were washed 3 times with PBS, and lysed with a lysis buffer containing 1% […]. Cell debris from the recovered lysate was removed by centrifugation at 12,000 rpm for 25 minutes. After recovering the supernatant, the protein amount was measured using a BCA kit. The supernatant was loaded onto a 10% sodium dodecyl sulfate-polyacrylamide gel. Electrophoresis (SDS-PAGE) was performed, followed by blotting onto a polyvinylidene difluoride (PVDF) membrane. After blotting, the PVDF membrane was treated with 5% BSA-containing tris buffered saline containing 0.1% Tween 20 (TBS-T) for 2 hours to suppress the non-specific binding of IgG (immunoglobulin G). It was immediately exposed to a rabbit anti-mouse primary antibody (1,000:1). After treating at 4° C. for 24 hours, the PVDF membrane was washed 3 times with TBS-T and further incubated with an HRP-conjugated mouse anti-rabbit IgG antibody at room temperature for 1 hour. The immunoreactive bands on the PVDF membrane were analyzed through an ECL (enhanced chemiluminescence) system.

[2] = system: organ tissue and cancer tissue; test: H&E histology of major organs and cancer tissue; type: in vivo, mouse; conditions: excised after 15 days
Description: as §1
The control group, the comparison group, and the example group were euthanized after 15 days, and major organs (heart, liver, lung, spleen, kidney) and cancer tissue were excised.
Furthermore, to analyze cancer cell apoptosis, TUNEL (terminal deoxynucleotidyl transferase dUTP nick end labeling) analysis was performed on cancer tissue excised from the control group, the comparison group, and the example group. Next, histological analysis was performed by H&E (hematoxylin & eosin) staining of the major organ tissues and cancer tissue of each excised group.
According to FIG. 29, major organ tissue and cancer tissue were excised from the control group, the comparison group, and the example group after 15 days. The excised organ tissue and cancer tissue were stained with H&E (hematoxylin & eosin). The H&E stained tissue was observed using a BX51 optical microscope (Olympus, Tokyo, Japan) and a TCS SP8 confocal laser microscope.

Cc1ncsc1-c1ccc([C@H](C)NC(=O)[C@@H]2C[C@@H](OC(=O)CCCCn3nnc4c3CCC3C(CC4)C3COC(=O)NCCOCCOCCNC(=O)CCN3C(=O)C=CC3=O)CN2C(=O)[C@@H](NC(=O)COCCCOCCNC(=O)C[C@@H]2N=C(c3ccc(Cl)cc3)c3c(sc(C)c3C)-n3c(C)nnc32)C(C)(C)C)cc1 (stereo partly drawn) [ECMal-PROTAC]
completion of thiol-maleimide reaction with BSA within 3 minutes ([1]; within 3 minutes): more than 75%
completion of thiol-maleimide reaction with BSA within 10 minutes ([1]; within 10 minutes): 100%
cancer size / increase in cancer size (4T1 tumor; 10 mg/kg equiv. to ARV-771, 15 days): significantly reduced
tumor volume, fold smaller than comparison group (4T1 tumor; 10 mg/kg equiv. to ARV-771, after 15 days, vs ARV-771 10 mg/kg): 5.3 times
tumor volume, fold smaller than control group (4T1 tumor; 10 mg/kg equiv. to ARV-771, after 15 days, vs saline): 6.1 times
tumor volume after 15 days (4T1 tumor; 10 mg/kg equiv. to ARV-771, tail vein, once every 3 days for 15 days): 176.13±81.62 mm3
tumor size (optical image) (4T1 tumor; excised after 15 days (FIG. 26)): much smaller tumor size than the other groups
degradation of overexpressed BRD4 protein (BRD4; 0 to 10 μM): degrades the overexpressed BRD4 protein in a concentration-dependent manner; also recorded: induce BRD4 deficiency
DC50 (BRD4; Western blot, read-out: DC50 (half-maximal degradation concentration), BRD4): 1810 nM
damage to the liver tissue ([2]; H&E): does not cause damage to the liver tissue
damage in cancer tissue (H&E) [2]: strong damage
damage in organ tissue (H&E) ([2]; liver, lung, spleen, kidney, heart): No significant damage
